Results reported in patent US6436948B1, “Method for the treatment of psoriasis and genital warts” (priority 1995, dated 2002).

Experiments:
[1] = test system: Leukemia P388 cells; experiment: In vivo treatment of leukemia P388 cells implanted ip in BDF1 mice; settings: 25x2x5 mg/kg ip
Method: 10^6 Leukemia P388 cells were implanted ip to BDF1 mice obtained from Southern Research Institute, Alabama. (−)-OddC was administered ip twice daily for five days starting one day after tumor cell implantation.
FIG. 3 and Table 1 show the results of these studies.

[2] = test system: BDF1 mice; experiment: Toxicity to BDF1 mice, ip twice daily for five days; format: in vivo; settings: 75 mg/kg/dose ip twice daily for five days
[3] = test system: Colon 38 tumor cells; experiment: In vivo treatment of Colon 38 tumor cells implanted sc in BDF1 mice; set-up: species or system mouse; settings: 25 mg/kg/dose twice daily for five days
Source text: The graph plots tumor growth as a percentage of original tumor weight vs. days. Treatment of the mice occurred in days 1, 2, 3, 4 and 5.
Colon 38 tumor cells were implanted sc to BDF1 mice.

[4] = test system: CCRF-CEM; experiment: NCI cancer screening program, SRB: CCRF-CEM; format: cell-based; settings: Leukemia, log10 concentration at PG +50, 48 hours
[5] = test system: RL-60(TB); experiment: NCI cancer screening program, SRB: RL-60(TB); format: cell-based
[6] = test system: K-562; experiment: NCI cancer screening program, SRB: K-562; format: cell-based; settings: Leukemia, PG +50, 48 hours
[7] = test system: BSOLT-4; experiment: NCI cancer screening program, SRB: BSOLT-4; format: cell-based; settings: Leukemia, PG +50, 48 hours
[8] = test system: RPMI-2.26; experiment: NCI cancer screening program, SRB: RPMI-2.26; format: cell-based; settings: Leukemia, PG +50, 48 hours
[9] = test system: SR; experiment: NCI cancer screening program, SRB: SR; format: cell-based; settings: Leukemia, PG +50, 48 hours
[10] = test system: HOP-62; experiment: NCI cancer screening program, SRB: HOP-62; format: cell-based; settings: Non-Small Cell Lung Cancer, PG +50, 48 hours
[11] = test system: NCI-H23; experiment: NCI cancer screening program, SRB: NCI-H23; format: cell-based; settings: Non-Small Cell Lung Cancer, PG +50, 48 hours
[12] = test system: NCI-H460; experiment: NCI cancer screening program, SRB: NCI-H460; format: cell-based; settings: Non-Small Cell Lung Cancer, PG +50, 48 hours
[13] = test system: NCI-H522; experiment: NCI cancer screening program, SRB: NCI-H522; format: cell-based; settings: Non-Small Cell Lung Cancer, PG +50, 48 hours
[14] = test system: COLO205; experiment: NCI cancer screening program, SRB: COLO205; format: cell-based; settings: Colon Cancer
[15] = test system: HCT-116; experiment: NCI cancer screening program, SRB: HCT-116; format: cell-based; settings: Colon Cancer, PG +50, 48 hours
[16] = test system: HCT-15; experiment: NCI cancer screening program, SRB: HCT-15; format: cell-based; settings: Colon Cancer, PG +50, 48 hours
[17] = test system: HT29; experiment: NCI cancer screening program, SRB: HT29; format: cell-based; settings: Colon Cancer, PG +50, 48 hours
[18] = test system: SNB-19; experiment: NCI cancer screening program, SRB: SNB-19; format: cell-based; settings: CNS Cancer, PG +50, 48 hours
[19] = test system: U251; experiment: NCI cancer screening program, SRB: U251; format: cell-based; settings: CNS Cancer, PG +50, 48 hours
[20] = test system: LOX D6VI; experiment: NCI cancer screening program, SRB: LOX D6VI; format: cell-based; settings: Melanoma
[21] = test system: MALME-3M; experiment: NCI cancer screening program, SRB: MALME-3M; format: cell-based; settings: Melanoma, PG +50, 48 hours
[22] = test system: SK-MEL-28; experiment: NCI cancer screening program, SRB: SK-MEL-28; format: cell-based; settings: Melanoma, PG +50, 48 hours
[23] = test system: SK-MEL-5; experiment: NCI cancer screening program, SRB: SK-MEL-5; format: cell-based; settings: Melanoma, PG +50, 48 hours
[24] = test system: UACC-257; experiment: NCI cancer screening program, SRB: UACC-257; format: cell-based; settings: Melanoma, PG +50, 48 hours
[25] = test system: UACC-62; experiment: NCI cancer screening program, SRB: UACC-62; format: cell-based; settings: Melanoma, PG +50, 48 hours
[26] = test system: OVCAR-3; experiment: NCI cancer screening program, SRB: OVCAR-3; format: cell-based; settings: Ovarian Cancer
[27] = test system: OVCAR-4; experiment: NCI cancer screening program, SRB: OVCAR-4; format: cell-based; settings: Ovarian Cancer, PG +50, 48 hours
[28] = test system: OVCAR-5; experiment: NCI cancer screening program, SRB: OVCAR-5; format: cell-based; settings: Ovarian Cancer, PG +50, 48 hours
[29] = test system: OVCAR-8; experiment: NCI cancer screening program, SRB: OVCAR-8; format: cell-based; settings: Ovarian Cancer
[30] = test system: SK-OV-3; experiment: NCI cancer screening program, SRB: SK-OV-3; format: cell-based; settings: Ovarian Cancer
[31] = test system: ACHN; experiment: NCI cancer screening program, SRB: ACHN; format: cell-based; settings: Renal Cancer, PG +50, 48 hours
[32] = test system: CAKI-1; experiment: NCI cancer screening program, SRB: CAKI-1; format: cell-based; settings: Renal Cancer, PG +50, 48 hours
[33] = test system: RXF-393; experiment: NCI cancer screening program, SRB: RXF-393; format: cell-based; settings: Renal Cancer, PG +50, 48 hours

Nc1ccn([C@@H]2CO[C@H](CO)O2)c(=O)n1 [(−)-OddC, (−)-(2S,4S)-1-(2-hydroxymethyl-1,3-dioxolan-4-yl)cytosine]
Cures/Total (survivors equal or greater than 45 day life span) [1]: one long term survivor
Mean Survival Time ([1]; twice a day on days 1 to 5, 10^6 P388 cells ip on day 0): 27 days
Toxicity to the mice [2]: toxic
Colon tumor cell growth [3]: retarded
Log10GI50 [4]: −6.64
Log10GI50 [5]: −6.28
Log10GI50 [6]: −4.59
Log10GI50 [7]: −6.66
Log10GI50 [8]: −4.03
Log10GI50 [9]: −5.95
Log10GI50 [10]: −6.23
Log10GI50 [11]: −4.92
Log10GI50 [12]: −4.32
Log10GI50 [13]: −6.06
Log10TGI ([14]; PG 0, 48 hours): >−4.00
Log10GI50 ([14]; PG +50, 48 hours): −4.03
Log10GI50 [15]: −5.23
Log10GI50 [16]: −5.39
Log10GI50 [17]: >−4.00
Log10GI50 [18]: −5.71
Log10GI50 [19]: −4.91
Log10TGI ([20]; PG 0, 48 hours): >−4.00
Log10GI50 ([20]; PG +50, 48 hours): −6.39
Log10GI50 [21]: −4.51
Log10GI50 [22]: −4.31
Log10GI50 [23]: −4.91
LOG10GI50 [24]: >−4.00
LOG10GI50 [25]: −5.53
LOG10TGI ([26]; PG 0, 48 hours): >−4.00
LOG10GI50 ([26]; PG +50, 48 hours): −4.44
LOG10GI50 [27]: >−4.00
LOG10GI50 [28]: −4.41
LOG10TGI ([29]; PG 0, 48 hours): >−4.00
LOG10GI50 ([29]; PG +50, 48 hours): −5.82
LOG10TGI ([30]; PG 0, 48 hours): >−4.00
LOG10GI50 ([30]; PG +50, 48 hours): −5.35
LOG10GI50 [31]: −6.46
LOG10GI50 [32]: −6.65
LOG10GI50 [33]: −6.17
